Results on 9 compounds are retold here after PubChem BioAssay (NCI).

Molecules are shown by their SMILES.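 The compound was tested at five concentrations on cells cultured in 96-well plates, with a 48-hour exposure period. At the GI50, growth is halved. TGI is the concentration that stops growth completely.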

Test systems include SK-OV-3 ovarian; IGROV1 ovarian; SNB-75 CNS; HL-60(TB) leukemia; RXF 393 renal; EKVX NSCLC; SF-295 CNS; KM12 colon; HCT-116 colon; MALME-3M melanoma.
Holding throughout (experiment): NCI-60 cell line screen, 48 h

Consider `O=C(NC1CCCCC1)NS(=O)(=O)c1ccc(N2N=C3c4ccccc4CC3C2c2ccc(Cl)cc2)cc1` (stereo not drawn), for which the GI50 is 24.5 µM in the assay with SK-OV-3 ovarian; 5.98 µM with IGROV1 ovarian; 13.2 µM in the assay on SNB-75 CNS; 15.8 µM in the assay with HL-60(TB) leukemia; 23.2 µM in the assay with RXF 393 renal; 5.38 µM in the assay on EKVX NSCLC. The GI50 was 15.9 µM in the assay with SF-295 CNS, 7.9 µM with KM12 colon and 5.15 µM with HCT-116 colon. In addition, the TGI in the assay on SK-OV-3 ovarian is greater than 100 µM; in the assay with IGROV1 ovarian, 25.5 µM; in the assay on SNB-75 CNS it was 85.9 µM; in the assay with HL-60(TB) leukemia, 36.6 µM; in the assay on RXF 393 renal, 87.5 µM; in the assay with EKVX NSCLC it was 22.8 µM. For the same compound, the TGI in the assay with SF-295 CNS was 43.9 µM; with KM12 colon, 27.9 µM; in the assay with HCT-116 colon it was 18.6 µM.
Regarding `CC(C)[C@@H]1NC(=O)[C@]2(C)CSC(=N2)c2ccnc(c2)CNC(=O)C[C@@H](/C=C/CCS)OC1=O`, the GI50 with SK-OV-3 ovarian is 0.0354 µM; in the assay with IGROV1 ovarian, 0.159 µM; with SNB-75 CNS, 0.0912 µM; with HL-60(TB) leukemia it was 0.513 µM; in the assay with RXF 393 renal it was 0.0828 µM; with EKVX NSCLC, 0.234 µM. Further, the GI50 in the assay with SF-295 CNS was 0.0623 µM; in the assay with KM12 colon it was 0.0857 µM; in the assay with HCT-116 colon, 0.115 µM. Further, the TGI is 0.197 µM with SK-OV-3 ovarian; 2.43 µM in the assay on IGROV1 ovarian; greater than 100 µM in the assay with SNB-75 CNS; greater than 100 µM with HL-60(TB) leukemia; 0.562 µM in the assay on RXF 393 renal; greater than 100 µM in the assay on EKVX NSCLC. Also, the figures for the TGI in the assay with SF-295 CNS, in the assay on KM12 colon and in the assay on HCT-116 colon were 0.322 µM, greater than 86.1 µM and 1.09 µM, respectively.
For the compound `C[C@@H]1CC[C@H]2C(C)(C)[C@H]3C[C@@]12CC[C@@]3(C)O`, the TGI is greater than 100 µM with SK-OV-3 ovarian; greater than 100 µM in the assay with IGROV1 ovarian; greater than 100 µM in the assay with SNB-75 CNS; 61.9 µM with HL-60(TB) leukemia; greater than 100 µM in the assay on EKVX NSCLC; greater than 100 µM in the assay on SF-295 CNS. Further, the TGI with KM12 colon and with HCT-116 colon was greater than 100 µM throughout.
In the case of `CCOC(=O)/C(=C/c1ccc(OC)cc1)N(CC)CC`, the TGI in the assay on SK-OV-3 ovarian, with IGROV1 ovarian, in the assay on HL-60(TB) leukemia, in the assay on EKVX NSCLC, in the assay on SF-295 CNS and in the assay on KM12 colon was greater than 100 µM throughout. The TGI in the assay on MALME-3M melanoma and in the assay on HCT-116 colon was greater than 100 µM each time.
For `C=C(C)C12OC1[C@@]1(C)C(=CC2=O)CCC(O)[C@@H]1C` (stereo partly drawn), the TGI in the assay with IGROV1 ovarian was 13.3 µM; in the assay with SNB-75 CNS it was 38.8 µM; in the assay with HL-60(TB) leukemia it was 4.26 µM; in the assay on EKVX NSCLC it was 6.69 µM; with SF-295 CNS, greater than 100 µM; in the assay with KM12 colon, 16.7 µM. The TGI with MALME-3M melanoma worked out at 25.1 µM; with HCT-116 colon, 14.2 µM.
For the compound `CC(C)(C)[Si](C)(C)OC1[C@@H](O[Si](C)(C)C(C)(C)C)[C@@H](CNC(=O)NC(=O)C(F)(F)F)O[C@H]1n1cnc2c(NC(=O)Nc3ccccc3)ncnc21` (stereo partly drawn), the GI50 with SK-OV-3 ovarian is 8.74 µM; with IGROV1 ovarian, 8.32 µM; with SNB-75 CNS, 5.68 µM; in the assay with HL-60(TB) leukemia, 9.3 µM; in the assay with RXF 393 renal, 1.3 µM; with KM12 colon it was 4.02 µM. Besides, the GI50 with MALME-3M melanoma is 10.4 µM; in the assay on HCT-116 colon, 2.46 µM. The TGI in the assay with SK-OV-3 ovarian amounted to 15.7 µM; with IGROV1 ovarian, 17.4 µM; with SNB-75 CNS it was 12.7 µM; in the assay with HL-60(TB) leukemia it was 26.4 µM; in the assay on RXF 393 renal it was 4.25 µM; in the assay on KM12 colon it was 11.4 µM. In addition, the values for the TGI in the assay with MALME-3M melanoma and in the assay on HCT-116 colon were 19.5 µM and 8.47 µM, respectively.
As for `O=C1NC(=NCc2ccccc2)S/C1=C\c1ccc2ncccc2c1`, the GI50 with SK-OV-3 ovarian, in the assay on IGROV1 ovarian, in the assay with SNB-75 CNS, with HL-60(TB) leukemia, in the assay with RXF 393 renal and in the assay on SF-295 CNS was greater than 25 µM each time. The figures for the GI50 in the assay on KM12 colon, in the assay on MALME-3M melanoma and in the assay on HCT-116 colon were greater than 25 µM, greater than 25 µM and greater than 20.7 µM, respectively. The TGI in the assay on SK-OV-3 ovarian, in the assay with IGROV1 ovarian, in the assay with SNB-75 CNS, in the assay with HL-60(TB) leukemia, in the assay with RXF 393 renal and with SF-295 CNS was greater than 25 µM throughout. Also, the TGI in the assay on KM12 colon, with MALME-3M melanoma and with HCT-116 colon was greater than 25 µM each time.
In the case of `COc1ccc(C(c2cc(OC)c(OC)c(OC)c2)n2cncn2)cc1O` (stereo not drawn), the GI50 is 0.402 µM in the assay on SK-OV-3 ovarian; 0.959 µM in the assay with IGROV1 ovarian; 0.261 µM in the assay on HL-60(TB) leukemia; 0.321 µM in the assay on RXF 393 renal; 2.24 µM in the assay with EKVX NSCLC; 0.325 µM in the assay on SF-295 CNS. Moreover, the GI50 with KM12 colon was 0.418 µM; with HCT-116 colon, 0.448 µM. In addition, the TGI with SK-OV-3 ovarian is greater than 100 µM; in the assay on IGROV1 ovarian, greater than 100 µM; in the assay on HL-60(TB) leukemia, 0.687 µM; with RXF 393 renal, greater than 100 µM; in the assay on EKVX NSCLC it was greater than 100 µM; in the assay on SF-295 CNS it was greater than 100 µM. The TGI with KM12 colon and in the assay with HCT-116 colon was greater than 100 µM in each case.
Turning to `NCCNCCNCCN`, the GI50 with SK-OV-3 ovarian, with IGROV1 ovarian, in the assay on SNB-75 CNS, in the assay with HL-60(TB) leukemia, in the assay on RXF 393 renal and in the assay with EKVX NSCLC was greater than 100 µM each time. The GI50 in the assay on SF-295 CNS, in the assay with KM12 colon and in the assay with HCT-116 colon was greater than 100 µM in each case. The TGI in the assay with SK-OV-3 ovarian, in the assay with IGROV1 ovarian, in the assay with SNB-75 CNS, with HL-60(TB) leukemia, with RXF 393 renal and in the assay on EKVX NSCLC was greater than 100 µM each time. The TGI in the assay with SF-295 CNS, in the assay on KM12 colon and with HCT-116 colon was greater than 100 µM throughout.
